Legend:
Assay in all cases: Chemokine glycan microarray binding assay
Details in all cases: maximum RFU set as 100% binding, average across 2 glycan concentrations and 3 chemokine dilutions (n=6)
CCL13 = CCL13 (Homo sapiens, UniProt Q99616)
Description: (§1) Microarray Studies: The compounds of the present invention were covalently immobilized on epoxy group collated glass slides. Slides were rehydrated with dH2O and incubated for 30 min in a staining dish with 50° C. prewarmed ethanolamine (0.05 M) in Tris-HCl (0.1 M, pH 9.0) to block the remaining reactive epoxy groups on the slide surface, then washed with 50° C. prewarmed dH2O. Slides were centrifuged at 200 g for 3 min, then fitted with the ProPlate Multi-Array 16-well slide module (Grace Bio-lab P37001) to divide into the subarrays (blocks). Slides were washed with PBST (0.1% Tween 20), aspirated, and blocked with 200 μL/subarray of blocking buffer (PBS pH 7.3+1% w/v ovalbumin) for 1 h at RT with gentle shaking. Next, the blocking solution was aspirated and 100 μL/block of primary chemokines diluted in PBS pH 7.3+1% w/v ovalbumin were incubated with gentle shaking for 2 hours at RT. Slides were washed 4 times with PBST, then with PBS (without Tween-20) for 2 min. Bound antibodies were detected by incubating with biotinylated secondary detections (1 ng/μL) diluted in PBS, 200 μL/block at RT for 1 h. Slides were washed 4 times with PBST, then with PBS (without Tween-20) for 2 min and biotinylated antibodies were detected with Cy3-SA ([…]). Slides were washed 4 times with PBST, then with PBS for 10 min followed by removal from the ProPlate Multi-Array slide module and immediately dipping in a staining dish with dH2O for 10 min with shaking. The slides were then centrifuged at 200 g for 3 min, and the dry slides immediately scanned. Binding was tested at three serial dilutions, then detected with the relevant biotinylated secondary antibody (1 μg/mL) followed by Cy3-strepavidin (1.5 μg/mL). Arrays were scanned and RFUs were calculated of chemokines binding to 100 μM glycans printed at four replicates. Rank binding of chemokines (each at three dilutions) to glycans printed at four replicates each was calculated and summarized in Table 1. For each binding assay per printed block, the maximum RFU was determined and set as 100% binding. Then, binding to all other glycans in the same block was ranked in comparison to the maximal binding, and average rank binding (and SEM) for each glycan across the three examined concentrations of each chemokine was calculated. This analysis allowed to compare the glycan-binding profiles of the different chemokines and dissect their binding preferences.
(§2) Table 1. Chemokine glycan microarray binding assay. Binding was tested at 3 serial dilutions, then detected with the relevant biotinylated secondary antibody (1 μg/ml) followed by Cy3-Strepavidin (1.5 μg/ml) (Table SX). Arrays were scanned, relative fluorescent units (RFU) obtained, and maximum RFU determined and set as 100% binding. Then rank binding (per printed glycan per concentration, per each chemokine dilution, per printed block) was determined. Since each glycans was printed at 2 concentration, 100% binding was set separately for each concentration. Then, binding to all the other glycans at the same concentration was ranked in comparison to the maximal binding, and the average rank binding and SEM for each glycan across the two glycan concentrations and three examined dilutions of each chemokine was calculated (n=6, 2 glycan concentrations across 3 chemokine dilutions). This analysis allowed to compare the glycan binding profiles of the different chemokines and dissect their binding preferences. The mean rank is shown as a heatmap of all the examined binding assays together (red highest, blue lowest and white 50th percentile of ranking).

CCL28 = target: T1, CCL28 (Homo sapiens, UniProt Q9NRJ3)
T1 sequence (Q9NRJ3 20-127): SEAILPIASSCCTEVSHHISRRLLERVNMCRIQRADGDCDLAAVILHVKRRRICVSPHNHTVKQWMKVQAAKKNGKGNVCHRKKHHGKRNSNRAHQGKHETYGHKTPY
Description: as §1, §2

CCL21 = target: T2, CCL21 (Homo sapiens, UniProt O00585)
T2 sequence (O00585 24-134): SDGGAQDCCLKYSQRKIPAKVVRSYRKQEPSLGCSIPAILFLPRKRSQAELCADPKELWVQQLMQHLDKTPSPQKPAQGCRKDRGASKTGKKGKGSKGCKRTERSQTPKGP
Description: as §1, §2

CCL5 = target: T3, CCL5 (Homo sapiens, UniProt P13501)
T3 sequence (P13501 24-91): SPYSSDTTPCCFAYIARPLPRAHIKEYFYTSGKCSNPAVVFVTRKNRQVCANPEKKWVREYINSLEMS
Description: as §1, §2

CXCL12 = CXCL12 (Homo sapiens, UniProt P48061)
Sequence of CXCL12 (P48061 22-93, species assumed): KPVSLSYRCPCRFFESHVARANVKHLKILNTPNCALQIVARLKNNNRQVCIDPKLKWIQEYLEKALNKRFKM
Description: as §1, §2

CXCL8 = target: T4, CXCL8 (Homo sapiens, UniProt P10145)
T4 sequence (P10145 21-99): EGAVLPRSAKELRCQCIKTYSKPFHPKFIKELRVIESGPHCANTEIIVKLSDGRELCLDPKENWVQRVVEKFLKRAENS
Description: as §1, §2

CCL7 = CCL7 (Homo sapiens, UniProt P80098)
Sequence of CCL7 (P80098 24-99, species assumed): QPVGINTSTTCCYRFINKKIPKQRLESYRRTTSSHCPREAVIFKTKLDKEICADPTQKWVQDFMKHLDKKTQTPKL
Description: as §1, §2

CCL2 = CCL2 (Homo sapiens, UniProt P13500)
Sequence of CCL2 (P13500 24-99, species assumed): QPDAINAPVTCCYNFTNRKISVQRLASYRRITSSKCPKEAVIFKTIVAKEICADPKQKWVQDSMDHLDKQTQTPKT
Description: as §1, §2

CXCL10 = target: T5, CXCL10 (Homo sapiens, UniProt P02778)
T5 sequence (P02778 22-98): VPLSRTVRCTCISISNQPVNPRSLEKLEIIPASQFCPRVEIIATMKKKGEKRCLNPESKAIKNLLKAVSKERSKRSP
Description: as §1, §2

Sequence of CCL13 (Q99616 17-98, species assumed): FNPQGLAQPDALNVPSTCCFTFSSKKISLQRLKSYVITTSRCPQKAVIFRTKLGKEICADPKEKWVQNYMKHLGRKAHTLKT

Row | Compound | mean rank binding to CCL13 (CCL13) [%] | mean rank binding to CCL28 (CCL28) [%] | mean rank binding to CCL21 (CCL21) [%] | mean rank binding to CCL5 (CCL5) [%] | mean rank binding to CXCL12 (CXCL12) [%] | mean rank binding to CXCL8 (CXCL8) [%] | mean rank binding to CCL7 (CCL7) [%] | mean rank binding to CCL2 (CCL2) [%] | mean rank binding to CXCL10 (CXCL10) [%]
1 | 3-Aminopropyl-O-[(2-amino-2-deoxy-α-D-glucopyranosyl)-(1→4)-O-(2-O-sulfonato-α-L-idopyranosyluronate)-(1→4)-O-(2-amino-2-deoxy-α-D-glucopyranosyl)]-(1→4)-O-2-O-sulfonato-α-L-idopyranosiduronate [Example 13] | 70 | 43 | 69 | 31 | 69 | 37 | 56 | 13 | 52
2 | NCCOCCO[C@@H]1O[C@@H](C(=O)O)[C@@H](OS(=O)(=O)O)[C@H](O)[C@H]1O [Example 2, Ethoxy-2-aminoethoxyl-O-(4-O-sulfonato)-α-L-idopyranoside Uronic Acid] | 82 | 58 | 63 | 2 | 66 | 12 | 30 | 2 | 45
3 | NCCCO[C@@H]1OC(C(=O)O)[C@@H](O[C@H]2OC(CO)[C@@H](O[C@@H]3OC(C(=O)O)[C@@H](O[C@H]4OC(CO)[C@@H](O)C(O)C4N)C(O)C3O)C(O)C2N)C(O)C1O (stereo partly drawn) [Example 15, 3-Aminopropyl-O-[(2-amino-2-deoxy-α-D-glucopyranosyl)-(1→4)-O-(α-L-idopyranosyluronate)-(1→4)-O-(2-amino-2-deoxy-α-D-glucopyranosyl)]-(1→4)-O-α-L-idopyranosiduronate] | 64 | 36 | 62 | 3 | 51 | 13 | 45 | 3 | 39
4 | NCCOCCO[C@@H]1OC(C(=O)O)[C@@H](O[C@@H]2OC(C(=O)O)[C@@H](O[C@@H]3OC(C(=O)O)[C@@H](O)C(O)C3O)C(O)C2O)C(O)C1O (stereo partly drawn) [Example 7, Ethoxy-2-aminoethoxyl-O-(α-L-idopyranosyl Uronic Acid-α(1→4)-α-L-idopyranosyl Uronic Acid-α(1→4))-α-L-idopyranoside Uronic Acid] | 86 | 80 | 83 | 30 | 92 | 63 | 75 | 36 | 78
5 | NCCOCCO[C@@H]1O[C@@H](C(=O)O)[C@@H](O[C@@H]2O[C@@H](C(=O)O)[C@@H](O[C@@H]3O[C@@H](C(=O)O)[C@@H](OS(=O)(=O)O)[C@H](O)[C@H]3O)[C@H](O)[C@H]2O)[C@H](O)[C@H]1O [Example 8, Ethoxy-2-aminoethoxyl-O-((4-O-sulfonato)-α-L-idopyranosyl Uronic Acid-α(1→4)-L-idopyranosyl Uronic Acid-α(1→4))-α-L-idopyranoside Uronic Acid] | 72 | 54 | 60 | 10 | 45 | 13 | 12 | 0 | 23
6 | CC(=O)NC1C(O)[C@H](O)C(COS(=O)(=O)O)O[C@@H]1O[C@@H]1C(C(=O)O)O[C@@H](O[C@@H]2C(COS(=O)(=O)O)O[C@H](O[C@@H]3C(C(=O)O)O[C@@H](OCCCN)C(O)C3O)C(NC(C)=O)C2O)C(O)C1O (stereo partly drawn) [Example 24, 3-Aminopropyl-O-[(2-acetamido-6-O-sulfonato-2-deoxy-α-D-glucopyranosyl)-(1→4)-O-(α-L-idopyranosyluronate)-(1→4)-O-(2-acetamido-6-O-sulfonato-2-deoxy-α-D-glucopyranosyl)]-(1→4)-O-α-L-idopyranosiduronate] | 81 | 79 | 79 | 24 | 66 | 19 | 73 | 13 | 41
7 | CC(=O)N[C@H]1[C@@H](O[C@H]2[C@H](O)[C@@H](OP(=O)(O)O)[C@H](OCCCN)O[C@H]2C(=O)O)O[C@H](COP(=O)(O)O)[C@@H](O[C@@H]2O[C@@H](C(=O)O)[C@@H](O[C@H]3O[C@H](COP(=O)(O)O)[C@@H](O)[C@H](O)[C@H]3NC(C)=O)[C@H](O)[C@H]2OP(=O)(O)O)[C@@H]1O [Example 21, 3-Aminopropyl-O-[(2-acetamido-6-O-phosphonato-2-deoxy-α-D-glucopyranosyl)-(1→4)-O-(2-O-phosphonato-α-L-idopyranosyluronate)-(1→4)-O-(2-acetamido-6-O-phosphonato-2-deoxy-α-D-glucopyranosyl)]-(1→4)-O-2-O-phosphonato-α-L-idopyranosiduronate] | 87 | 78 | 78 | 14 | 59 | 29 | 56 | 2 | 55
8 | NCCCO[C@@H]1O[C@@H](C(=O)O)[C@@H](O[C@H]2O[C@H](CO)[C@@H](O[C@@H]3O[C@@H](C(=O)O)[C@@H](O[C@H]4O[C@H](CO)[C@@H](O)[C@H](OS(=O)(=O)O)[C@H]4N)[C@H](O)[C@H]3O)[C@H](OS(=O)(=O)O)[C@H]2N)[C@H](O)[C@H]1O [Example 22, 3-Aminopropyl-O-[(2-amino-3-O-sulfonato-2-deoxy-α-D-glucopyranosyl)-(1→4)-O-(α-L-idopyranosyluronate)-(1→4)-O-(2-amino-3-O-sulfonato-2-deoxy-α-D-glucopyranosyl)]-(1→4)-O-α-L-idopyranosiduronate] | 58 | 62 | 83 | 20 | 84 | 51 | 78 | 28 | 65

Source: patent US20260207654A1, “HEPARAN SULFATE AND ITS MIMETICS AS CHEMOKINE INHIBITORS” (INDIAN INSTITUTE OF SCIENCE EDUCATION AND RESEARCH, priority 2021, published 2026)
